Consider three molecules from US6821508B2, “Composition and method for topical nail treatment” (Rutgers, the State University, priority 2001, dated 2004).

By solubility is commonly meant the dissolved amount per volume that the medium holds.

≈ marks a conversion by molar mass, not a printed value. Like-named read-outs stand apart in the source and are kept apart here.

Data set [1] is described as follows: Enhancer screening: tritiated water permeation through nails in Franz-type diffusion cells (toenails). As to conditions: Table 2; pyrithione gels, each relative to its own control.
Description: Frozen human toenails and fingernails were obtained from tissue banks based on a protocol for size, patient history, etc. The nails were thawed at room temperature for 1 hour, and the adhering skin and tissue was removed with a pair of scissors and a scalpel. The nails were cleaned by rinsing them in a mild detergent solution (1% solution of a standard liquid soap containing sodium and potassium dodecyl benzene sulfonate and ammonium laureth sulfate), followed by two rinses in deionized water (DI water). The thickness of the nails was measured with a micrometer, and the nails were immersed in 10 mL of DI water for 24 hours just prior to use to allow complete hydration and bring all the nails to the same condition for valid comparisons (Kobayashi, et al. (1998) Chem. Pharm. Bull. 46(11):1797-1802; Walters, et al. (1981) J Invest Dermatol 76:76-79; Mertin and Lippold (1997) J Pharm Pharmacol 49:30-34).
Franz-type diffusion cells (Crown Glass Co., Somerville, N.J.), specially designed to hold the human nail were used (Malhotra and Zatz (2000) J Cosmet Sci 51:367-377). The cleaned, trimmed nails were clamped into the diffusion cells. […]
All gels were prepared using the same general procedure. […] The apparent pH of the gels was measured. Prior to use, three 10 μL aliquots of the gel were analyzed by Liquid Scintillation Counting (LSC) to validate uniformity of spiking. […]
Data set [2] is described as follows: Solubility of clotrimazole in PEG-20-oleyl ether receptor fluid (HPLC). Format: physicochemical. The conditions noted are these: aqueous PEG-20-oleyl ether surfactant solution, 37 °C, aqueous with cosolvent or surfactant or cyclodextrin, thermodynamic from solid, read-out: Solubility of clotrimazole (Mean ± SEM, n = 3). The method, then: Aqueous solutions of PEG-20-oleyl ether in concentrations of 0.5%, 1%, 2%, and 5% were prepared. Excess clotrimazole was added to vials containing 10 mL of surfactant solution. For each surfactant concentration, the solubility determination was done in triplicate. The vials were agitated in a mechanical shaker bath (Precision Scientific, Chicago, Ill.) maintained at 37° C. for 24 hours. The vials were then centrifuged (Fisher Scientific, Springfield, N.J.) at 4600 rpm for 30 minutes at 25° C. The supernatant was analyzed for drug concentration by High Performance Liquid Chromatography (HPLC).
The HPLC conditions were adapted from well known methods, for example Hoogerheide, et al. ((1981) J Assoc Off Anal Chem 64:864-869) and Rifai, et al. ((1995) Clin Chem 41:387-391). The HPLC analysis was performed using a Waters 600E System Controller Pump, Waters 717 Autoinjector, Waters 486 Tunable Absorbance Detector, and Waters 700 Data Module Integrator. A reverse-phase C-18 column (Waters Novapak, 3.9×150 mm, 4μ) was used. The mobile phase consisted of a mixture of 0.025M dibasic potassium phosphate (pH adjusted to approximately 6.3 with o-phosphoric acid) and HPLC grade methanol in the ratio 1:3. A flow rate of 1 mL/minute was maintained and the detector wavelength was set at 254 nm.
Standard solutions of clotrimazole in mobile phase were prepared in the concentration range of 5-200 μg/mL. The injection volume of standard and sample solutions was 20 μL.
The chromatography conditions yielded a linear standard curve (R^2=0.9995). From the standard curve, the solubility of clotrimazole in different concentrations of PEG-20-oleyl ether was quantitatively determined.

The conditions of data set [3]: 25° C.; Hoogerheide and Wyka (1982); cited from earlier work.

With zinc pyrithione [ZnPTO], the EFwater in data set [1] is 1.13.

As for `Clc1ccccc1C(c1ccccc1)(c1ccccc1)n1ccnc1` [clotrimazole], the solubility at 24 h came out at 75.2 µg/mL (≈ 218 µM) in data set [2] (0.5% PEG-20-oleyl ether in water), 191 µg/mL (≈ 553 µM) in data set [2] (1.0% PEG-20-oleyl ether in water), 499 µg/mL (≈ 1450 µM) in data set [2] (2.0% PEG-20-oleyl ether in water) and 1350 µg/mL (≈ 3930 µM) in data set [2] (5.0% PEG-20-oleyl ether in water). In addition, in data set [3], the solubility in alcohol is 95000 µg/mL (≈ 275000 µM). For the same molecule, in data set [3], the solubility in water is less than 10 µg/mL.

Consider `[Na+].[O-][n+]1ccccc1[S-]` [NaPTO, sodium pyrithione], for which the EFwater in data set [1] is listed as approximately 1.
